# pIC50: −log10 of the molar value.
# Experiments:
# [1] = system: Naegleria fowleri; experiment: Antiparasitic activity against Naegleria fowleri NF69 (ATCC 30215) assessed as parasitic growth inhibition at 10 uM incubated for 48 hrs by CellTiter-Glo based BioTek microplate reader analysis relative to control; assay type: functional; parameters: scale not given: the % may be the effect or the level left
# [2] = system: HeLa; experiment: Antiproliferative activity against human HeLa cells assessed as inhibition of cell proliferation; assay type: functional, cell-based
# [3] = system: MCF7; experiment: Cytotoxicity against human MCF7 cells assessed as reduction in cell viability; assay type: functional, cell-based
# [4] = system: HeLa; experiment: Cytotoxicity against human HeLa cells assessed as reduction in cell viability; assay type: functional, cell-based
# [5] = system: A549; experiment: Cytotoxicity against human A549 cells assessed as reduction in cell viability; assay type: functional
# [6] = system: Staphylococcus aureus; experiment: Antibacterial activity against Staphylococcus aureus assessed as diameter of inhibition zone; assay type: functional
# [7] = system: Bacillus cereus; experiment: Antibacterial activity against Bacillus cereus assessed as diameter of inhibition zone; assay type: functional
# [8] = system: Pseudomonas aeruginosa; experiment: Antibacterial activity against Pseudomonas aeruginosa assessed as diameter of inhibition zone; assay type: functional
# [9] = system: Escherichia coli; experiment: Antibacterial activity against Escherichia coli assessed as diameter of inhibition zone; assay type: functional
# [10] = biological target: Acetylcholinesterase (Homo sapiens, UniProt P22303); experiment: Competitive inhibition of AChE (unknown origin)
# Chain of Acetylcholinesterase (P22303 whole entry): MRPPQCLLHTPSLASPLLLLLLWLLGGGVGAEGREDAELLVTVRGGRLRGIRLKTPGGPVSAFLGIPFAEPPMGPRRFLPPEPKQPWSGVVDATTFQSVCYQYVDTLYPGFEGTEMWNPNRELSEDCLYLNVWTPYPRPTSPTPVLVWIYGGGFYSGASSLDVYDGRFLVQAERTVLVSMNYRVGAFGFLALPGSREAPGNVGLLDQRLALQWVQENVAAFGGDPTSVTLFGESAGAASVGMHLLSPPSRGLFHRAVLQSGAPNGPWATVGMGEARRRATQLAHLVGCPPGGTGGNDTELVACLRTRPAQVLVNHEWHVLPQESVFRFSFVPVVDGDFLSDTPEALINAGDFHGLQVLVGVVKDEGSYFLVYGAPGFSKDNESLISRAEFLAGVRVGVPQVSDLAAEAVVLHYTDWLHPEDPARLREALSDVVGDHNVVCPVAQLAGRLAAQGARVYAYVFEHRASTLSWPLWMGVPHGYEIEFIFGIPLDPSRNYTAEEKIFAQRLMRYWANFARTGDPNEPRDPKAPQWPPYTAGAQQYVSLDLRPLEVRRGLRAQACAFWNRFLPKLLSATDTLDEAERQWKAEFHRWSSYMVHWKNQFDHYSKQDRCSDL
structure (smiles),measurement,setting,value
CN1CCC[C@H]2c3nc4ccc(C#N)cc4c(=O)n3CC[C@H]21,Activity,[1],98.2%
COc1ccc(/C=C2\CCCn3c2nc2oc(-c4ccc(F)cc4)cc2c3=O)cc1OC,pIC50,[2],5.07
CN1CCC[C@@H]2c3nc4cc(C(F)(F)F)ccc4c(=O)n3CC[C@H]21,Activity,[1],96.8%
O=c1c2nc(-c3cc(Cl)cc(Cl)c3)oc2nc2n1CCCC2,pIC50,[3],5.64
same,pIC50,[4],5.51
same,Activity,[5],0.75 µM
O=C1c2ccccc2NC2=C(/C=N/c3ccccc3O)CCCN12,diameter of the inhibition zone (DIZ),[6],18 mm
same,diameter of the inhibition zone (DIZ),[7],18 mm
same,diameter of the inhibition zone (DIZ),[8],18 mm
same,diameter of the inhibition zone (DIZ),[9],6 mm
CN1CCC[C@@H]2c3nc4ccc(Cl)cc4c(=O)n3CC[C@H]21,Activity,[1],98.1%
O=c1c2nc(-c3ccc(C(F)(F)F)cc3)sc2nc2n1CCCC2,pIC50,[10],5.78

# Reference: ChEMBL document CHEMBL6078661, “Alkaloids from Mackinlaya species and synthetic mackinazolinone derivatives: An overview” (Bioorg Med Chem, 2025)
